Results from ChEMBL document CHEMBL4665777, “Bioactive Alkaloids from the Actinomycete Actinoalloteichus sp. ZZ1866” (J Nat Prod, 2020).
Calls of active or inactive are those of the source. No cut-off for these calls is given here.

What was measured:
Staphylococcus aureus = assay: Antimicrobial activity against methicillin-resistant Staphylococcus aureus at 50 ug/ml after 12 hrs by microbroth dilution method; type: functional, organism-based
U-251 [1] = assay: Antiproliferative activities against human U-251 cells by SRB assay; type: functional, cell-based
Escherichia coli = assay: Antimicrobial activity against Escherichia coli at 50 ug/ml after 12 hrs by microbroth dilution method; type: functional, organism-based
U-87 MG [2] = assay: Antiproliferative activities against human U-87 MG cells by SRB assay; type: functional, cell-based, U-87MG ATCC
Candida albicans = assay: Antimicrobial activity against Candida albicans at 50 ug/ml after 12 hrs by microbroth dilution method; type: functional, organism-based
U-251 [3] = assay: Antiproliferative activities against human U-251 cells at 50 uM by SRB assay; type: functional, cell-based
U-87 MG [4] = assay: Antiproliferative activities against human U-87 MG cells at 50 uM by SRB assay; type: functional, cell-based; conditions: u-87mg atcc

Structure (SMILES) | Activity (Staphylococcus aureus) | IC50 (U-251 [1]) [µM] | Activity (Escherichia coli) | IC50 (U-87 MG [2]) [µM] | Activity (Candida albicans) | IC50 (U-251 [3]) | IC50 (U-87 MG [4])
CO[C@@]1(C)N(/C=C/c2ccccc2)C(=O)c2cc3c([nH]c4ccccc43)c(=O)n21 | inactive | 36 | inactive | 43 | inactive |  | 
COc1cccc2c1C(=O)c1c(O)c3c(c(O)c1C2=O)C[C@@](O)(C(=O)CO)C[C@@H]3O[C@H]1C[C@H](N)[C@H](O)[C@H](C)O1 [DOXORUBICIN] |  | 3.9 |  | 0.6 |  |  | 
CO[C@@]1(C)N(C[C@@H](O)c2ccccc2)C(=O)c2cc3c4ccccc4n(C)c3c(=O)n21 | inactive | 36 | inactive | 29 | inactive |  | 
CO[C@@]1(C)N(/C=C\c2ccccc2)C(=O)c2cc3c4ccccc4n(C)c3c(=O)n21 | inactive | 12 | inactive | 2.3 | inactive |  | 
CC(=O)c1nc(C(=O)NCCc2ccccc2)cc2c1[nH]c1ccccc12 | inactive | 12 | inactive | 13 | inactive |  | 
CC(=O)NC[C@H](OC(=O)c1cc2c3ccccc3n(C)c2c(=O)[nH]1)c1ccccc1 | inactive | 15 | inactive | 19 | inactive |  | 
CC(=O)c1nc(C(=O)NCCc2ccccc2)cc2c3ccccc3n(C)c12 | inactive | 12 | inactive | 7.4 | inactive |  | 
CC(=O)c1nc(C(=O)NC[C@H](O)c2ccccc2)cc2c3ccccc3n(C)c12 | inactive |  | inactive |  | inactive | Not Active | Not Active
CCCCCc1[nH]c(=O)c2cnccc2c1C | inactive |  | inactive |  | inactive | Not Active | Not Active
CO[C@@]1(C)N(/C=C/c2ccccc2)C(=O)C2=C[C@@]3(C(=O)N(C)c4ccccc43)C(=O)N21 | inactive | 5.8 | inactive | 7.2 | inactive |  | 
Cn1c2ccccc2c2cc(C(=O)NCCc3ccccc3)[nH]c(=O)c21 | inactive | 13 | inactive | 11 | inactive |  | 
CO[C@@]1(C)N(/C=C\c2ccccc2)C(=O)c2cc3c([nH]c4ccccc43)c(=O)n21 | inactive |  | inactive |  | inactive | Not Active | Not Active
CO[C@@]1(C)N(/C=C/c2ccccc2)C(=O)c2cc3c4ccccc4n(C)c3c(=O)n21 | inactive | 17 | inactive | 4.5 | inactive |  | 
O=C(NCCc1ccccc1)c1cc2c([nH]c3ccccc32)c(=O)[nH]1 | inactive |  | inactive |  | inactive | Not Active | Not Active
COc1cc(/C=N/OCCc2ccccc2)nc(-c2ccccn2)c1 | inactive | 2 | inactive | 6.5 | inactive |  | 
Cn1c2ccccc2c2cc3n(c(=O)c21)[C@@](C)(O)N(CCc1ccccc1)C3=O | inactive |  | inactive |  | inactive | Not Active | Not Active
CO[C@@]1(C)N(CCc2ccccc2)C(=O)c2cc3c4ccccc4n(C)c3c(=O)n21 | inactive | 27 | inactive | 8.9 | inactive |  | 
CO[C@@]1(C)N(C[C@H](O)c2ccccc2)C(=O)c2cc3c4ccccc4n(C)c3c(=O)n21 | inactive | 19 | inactive | 17 | inactive |  | 
